# Results published in patent publication US7198949B2, “Compositions and methods for altering the biodistribution of biological agents” (Board of Regents of the University of Nebraska, priority 1996, dated 2007).
# Marks after values point to notes of the source that are not given here.
# Assays:
# human serum albumin = human serum albumin (Homo sapiens, UniProt P02768); details: cited from earlier work
# albumin = albumin (Homo sapiens, UniProt P02768); details: drugs which bind to albumin at site 1; cited from earlier work
# [1] = biological target: T1, albumin of PESDA microbubbles (Homo sapiens, UniProt P02768); test: Partitioning of 35S-labeled PS-ODN between PESDA microbubble top layer and lower layer, liquid scintillation counting; format: binding; details: for BOTTOM / TOP: N 6; for TOP: top layer containing microbubbles
# T1 construct: commercially available albumin (human), U.S.P. solution (generally supplied as 5% or 25% by weight sterile aqueous solutions); purchased
# Description: Radiolabeled oligonucleotides were synthesized as hydrogen phosphonate material by Glen Research (Bethesda, Md.) The uniformly ^35S-labeled PS-ODN with sequences 5′-TATGCTGTGCCGGGGTCTTCGGGC 3′ (24-mer complementary to c-myb) (SEQ ID NO:2) and 5′ TTAGGG 3′ (SEQ ID NO:3) were incubated in a final volume of 0.5 ml with the perfluorocarbon-exposed sonicated dextrose albumin microbubble solution for 30 minutes at 37° C. The solutions were allowed to stand so that the bubbles could rise to the top and 100 microliters were removed from the clear solution at the bottom and 100 microliters were removed from the top containing the microbubbles.
# Five percent human serum albumin and five percent dextrose were obtained from a commercial source. Three parts of 5% dexticse and one part 5% human serum albumin (total 16 milliliters) were drawn into a 35-milliliter Monojet syringe. Each dextrose albumin sample was hand agitated with 8±2 milliliters of either a fluorocarbon gas (decafluorobutane; molecular weight 238 grams/mole) or 8±2 milliliters of room air, and the sample was then exposed to electromechanical sonication at 20 kilohertz for 80±5 seconds. The mean size of four consecutive samples of the perfluorocarbon-exposed sonicated dextrose albumin (PESDA) microbubbles produced in this manner, as measured with hemocytometry was 4.6±0.4 microns, and mean concentration, as measured by a Coulter counter was 1.4×10^9 bubbles/milliliter. The solution of microbubbles was then washed in a 1000 times volume excess of 5% dextrose to remove albumin which was not associated with the microbubbles. The microbubbles were allowed four hours to rise. The lower solution was then removed leaving the washed foam. The washed foam was then mixed with 0.9% sodium chloride.
# Radioactivity in solutions were determined by liquid scintillation counting in a liquid scintillation counter (model LSC7500; Beckman Instruments GmbH, Munich, Germany). The sample volume was 100 μl to which 5 ml of Hydrocount biodegradable scintillation cocktail was added and mixed. Samples were counted immediately after each experiment and then again 24 hours later in order to reduce the influence of chemiluminescence and of quenching.
# cytochrome P450 IIB1 = test: Hexobarbital sleep time and biodistribution in rats given antisense oligos to cytochrome P450 IIB1 with or without PESDA microbubbles; format: in vivo, rat; details: PB alone × 2 days, 100 mg/kg HB i.p., control rats about 23 minutes
# Description: The oligonucleotides were conjugated to perfluoropropane exposed sonicated dextrose albumin microbubbles (PESDA) as earlier described and delivered to rats intravenously.
# Male Sprague-Dawley rats (Sasco, Omaha), were used and weighed between 210 to 290 grams for all studies. […] The animals were exposed to 12 hour light/dark cycle and allowed access to Purina rat chow and tap water ad libitum.
# Rats in groups with PB were injected intraperitoneally with phenobarbital (Mallinckrodt, St. Louis) at 80 ml/kg/day×2 days. The PB injections were given simultaneously with the ODN-microbubble injections. Phosphorothioate ODN injections were 1 ml/kg/day×2 days. Sleep times were measured 48 hours after the first injection. The rats were injected intraperitoneally with 100 ml/kg hexobarbital (Sigma, St. Louis), paired fresh daily. The volume of this injection is 1 ml/kg body weight.
# Each rat was injected with 100 mg/kg of hexobarbital intraperitoneally. The animals were placed on their backs to insure that they were still under sedation from the hexobarbital. Sleep time is defined as the time they are placed on their backs to the time when they roll over. The sleep times listed are the mean of each animal in the group±standard deviation.
# As described earlier, 100 mg/kg HB was injected i.p. to each animal at the end of 2 days of treatment with PB and/or the ODNs.
# [2] = bubbles in the presence of free albumin
# [3] = bubbles in the presence of free albumin, lower clear layer
# [4] = washed bubbles (no free albumin)
# [5] = washed bubbles (no free albumin), lower layer
# T1 sequence (P02768 25-609): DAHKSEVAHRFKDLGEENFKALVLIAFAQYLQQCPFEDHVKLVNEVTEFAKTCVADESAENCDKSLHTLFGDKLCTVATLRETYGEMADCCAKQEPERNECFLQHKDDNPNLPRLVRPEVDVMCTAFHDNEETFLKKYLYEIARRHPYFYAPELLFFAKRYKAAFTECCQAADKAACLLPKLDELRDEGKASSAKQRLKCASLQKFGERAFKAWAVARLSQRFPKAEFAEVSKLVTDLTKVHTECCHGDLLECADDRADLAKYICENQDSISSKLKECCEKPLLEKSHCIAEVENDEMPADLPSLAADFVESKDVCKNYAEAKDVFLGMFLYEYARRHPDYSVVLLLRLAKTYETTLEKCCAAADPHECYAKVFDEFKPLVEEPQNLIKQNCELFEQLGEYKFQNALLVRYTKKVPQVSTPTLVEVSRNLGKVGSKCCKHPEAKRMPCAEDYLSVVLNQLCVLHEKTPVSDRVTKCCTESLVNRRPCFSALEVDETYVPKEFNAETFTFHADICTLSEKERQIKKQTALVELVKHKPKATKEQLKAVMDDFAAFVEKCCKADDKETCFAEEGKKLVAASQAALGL
# Chain of albumin (P02768 25-609): as above
# Chain of human serum albumin (P02768 25-609): as above
compound,measurement,setting,value
5′d(AACGTTGAGGGGCAT)-3′ [15 mer PS-ODN],binding to human serum albumin in solution (dissociation constant range),human serum albumin,3.7−4.8×10−5
O=C1NC(=O)C(c2ccccc2)(c2ccccc2)N1 [Phenytoin],% Albumin Binding,albumin,89.0%
CCCC(CCC)C(=O)O [Valproic Acid],% Albumin Binding,albumin,93.0%
Clc1ccc(COC(Cn2ccnc2)c2ccc(Cl)cc2Cl)c(Cl)c1 (stereo not drawn) [Miconazole],% Albumin Binding,albumin,90.7–93.1* %
NS(=O)(=O)c1cc(C(=O)O)c(NCc2ccco2)cc1Cl [Furosemide],% Albumin Binding,albumin,98.8%
CO/N=C(\C(=O)N[C@@H]1C(=O)N2C(C(=O)O)=C(CSc3nc(=O)c(=O)[nH]n3C)CS[C@H]12)c1csc(N)n1 [Ceftriaxone],% Albumin Binding,albumin,90–95* %
"5′-TATGCTGTGCCGGGGTCTTCGGGC 3′ (antisense TATGCTGTGCCGGGGTCTTCGGGC; phosphorothioate backbone, 35S label, further chemistry not given here) [c-myb, uniformly 35S-labeled PS-ODN, 24-mer complementary to c-myb]",RATIO T/B,[1]; [2],1.35
same,BOTTOM,[1]; [3],77.3 ± 1.2 cpm/μl
same,TOP,[1]; [2],94.1 ± 17.6 cpm/μl
same,RATIO T/B,[1]; [4],2.16
same,BOTTOM,[1]; [5],92.7 ± 15.7 cpm/μl
same,TOP,[1]; [4],200.3 ± 37.4 cpm/μl
5′ TTAGGG 3′,RATIO T/B,[1]; [2],1.35
same,BOTTOM,[1]; [3],92.3 ± 6.4 cpm/μl
same,TOP,[1]; [2],125 ± 6.4 cpm/μl
same,RATIO T/B,[1]; [4],1.67
same,BOTTOM,[1]; [5],126 ± 8.7 cpm/μl
same,TOP,[1]; [4],210 ± 10.8 cpm/μl
CN1C(C(=O)Nc2ccccn2)=C(O)c2ccccc2S1(=O)=O [Piroxicam],% Albumin Binding,albumin,99.3%
Cc1noc(NS(=O)(=O)c2ccc(N)cc2)c1C [Sulfisoxazole],% Albumin Binding,albumin,91.4%
"CCC1(c2ccccc2)C(=O)NC(=O)NC1=O [PB, phenobarbital]",sleep time,cytochrome P450 IIB1,about 11.4±4.5 minutes
